{"source": "ChEMBL document CHEMBL5108052", "about": "“Histone Deacetylase and Enhancer of Zeste Homologue 2 Dual Inhibitors Presenting a Synergistic Effect for the Treatment of Hematological Malignancies” (J Med Chem, 2022)", "key": {"MV4-11 [1]": {"test_system": "MV4-11", "assay": "Induction of apoptosis in human MV4-11 cells assessed as early apoptotic cells at 0.4 uM measured after 48 hrs by Annexin V/7-AAD-dual staining based flow cytometric analysis (reference value: 2.2 %)", "assay_type": "functional"}, "Histone deacetylase 9": {"biological_target": "Histone deacetylase 9 (Homo sapiens, UniProt Q9UKV0)", "sequence (Q9UKV0 whole entry)": "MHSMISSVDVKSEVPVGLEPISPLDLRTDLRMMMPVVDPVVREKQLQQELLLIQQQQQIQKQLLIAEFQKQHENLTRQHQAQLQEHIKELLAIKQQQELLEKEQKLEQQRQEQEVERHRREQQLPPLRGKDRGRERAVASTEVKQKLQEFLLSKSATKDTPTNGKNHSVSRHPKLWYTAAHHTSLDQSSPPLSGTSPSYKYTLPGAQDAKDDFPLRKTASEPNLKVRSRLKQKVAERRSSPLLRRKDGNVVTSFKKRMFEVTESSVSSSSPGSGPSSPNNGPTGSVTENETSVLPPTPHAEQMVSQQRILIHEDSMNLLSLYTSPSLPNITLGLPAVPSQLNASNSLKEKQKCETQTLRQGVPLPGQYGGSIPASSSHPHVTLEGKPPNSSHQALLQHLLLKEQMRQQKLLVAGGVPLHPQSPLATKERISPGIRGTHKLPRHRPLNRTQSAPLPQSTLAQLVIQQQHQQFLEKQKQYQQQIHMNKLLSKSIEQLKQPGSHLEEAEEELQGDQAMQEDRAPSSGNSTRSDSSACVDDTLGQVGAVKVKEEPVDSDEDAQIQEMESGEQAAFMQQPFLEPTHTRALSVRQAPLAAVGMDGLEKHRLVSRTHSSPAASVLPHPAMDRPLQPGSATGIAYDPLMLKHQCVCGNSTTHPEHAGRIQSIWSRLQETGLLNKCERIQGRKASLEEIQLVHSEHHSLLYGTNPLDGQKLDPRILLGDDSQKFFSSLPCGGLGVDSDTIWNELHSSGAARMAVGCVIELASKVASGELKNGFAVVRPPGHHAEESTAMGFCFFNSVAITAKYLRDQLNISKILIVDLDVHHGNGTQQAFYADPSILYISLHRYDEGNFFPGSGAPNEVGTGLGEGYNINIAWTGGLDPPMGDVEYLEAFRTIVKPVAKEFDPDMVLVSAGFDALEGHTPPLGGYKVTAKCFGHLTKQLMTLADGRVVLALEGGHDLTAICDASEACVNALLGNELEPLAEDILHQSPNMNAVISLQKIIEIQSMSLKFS", "assay": "Inhibition of HDAC9 (unknown origin) incubated for 2 hrs by Multimode microplate reader analysis"}, "MV4-11 [2]": {"test_system": "MV4-11", "assay": "Induction of apoptosis in human MV4-11 cells assessed as necrotic cells at 0.4 uM measured after 48 hrs by Annexin V/7-AAD-dual staining based flow cytometric analysis (reference value: 0.3 %)", "assay_type": "functional"}, "Histone deacetylase 5": {"biological_target": "Histone deacetylase 5 (Homo sapiens, UniProt Q9UQL6)", "sequence (Q9UQL6 whole entry, the tested form may be a part)": "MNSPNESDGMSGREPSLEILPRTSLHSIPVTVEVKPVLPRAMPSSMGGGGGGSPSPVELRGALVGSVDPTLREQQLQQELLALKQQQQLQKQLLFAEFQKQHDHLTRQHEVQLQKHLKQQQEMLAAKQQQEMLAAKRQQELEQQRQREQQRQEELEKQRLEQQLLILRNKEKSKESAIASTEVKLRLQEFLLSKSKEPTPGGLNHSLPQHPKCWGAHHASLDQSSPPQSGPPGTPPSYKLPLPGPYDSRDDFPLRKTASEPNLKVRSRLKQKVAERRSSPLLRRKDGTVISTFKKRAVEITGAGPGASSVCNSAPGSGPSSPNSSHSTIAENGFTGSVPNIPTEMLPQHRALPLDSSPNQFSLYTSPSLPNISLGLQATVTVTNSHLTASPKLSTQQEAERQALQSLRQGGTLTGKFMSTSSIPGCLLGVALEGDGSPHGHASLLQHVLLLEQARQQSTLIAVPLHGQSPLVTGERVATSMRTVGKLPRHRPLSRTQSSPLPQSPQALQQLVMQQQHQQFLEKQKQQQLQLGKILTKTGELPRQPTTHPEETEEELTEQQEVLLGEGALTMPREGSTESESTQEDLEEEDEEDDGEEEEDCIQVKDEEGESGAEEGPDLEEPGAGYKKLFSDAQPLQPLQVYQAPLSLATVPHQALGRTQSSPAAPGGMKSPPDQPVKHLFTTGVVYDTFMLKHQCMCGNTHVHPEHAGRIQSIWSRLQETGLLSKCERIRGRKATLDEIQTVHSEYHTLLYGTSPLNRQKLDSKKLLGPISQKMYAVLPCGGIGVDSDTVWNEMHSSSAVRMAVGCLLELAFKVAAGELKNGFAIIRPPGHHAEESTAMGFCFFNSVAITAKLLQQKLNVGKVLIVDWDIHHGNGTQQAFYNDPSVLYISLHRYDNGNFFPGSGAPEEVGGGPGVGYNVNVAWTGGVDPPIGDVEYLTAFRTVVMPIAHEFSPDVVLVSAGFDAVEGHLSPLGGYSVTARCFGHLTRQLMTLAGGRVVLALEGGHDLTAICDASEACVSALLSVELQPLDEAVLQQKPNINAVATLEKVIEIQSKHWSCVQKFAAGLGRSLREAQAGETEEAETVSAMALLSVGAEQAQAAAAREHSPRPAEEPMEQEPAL", "assay": "Inhibition of recombinant C-terminal his fusion-tagged human HDAC5 (656 to 1122 residues) expressed in baculovirus expression system using trifluoroacetyl lysine as substrate incubated for 2 hrs by Multimode microplate reader analysis"}, "Histone deacetylase 7": {"biological_target": "T1, Histone deacetylase 7 (Homo sapiens, UniProt Q8WUI4)", "T1 sequence (Q8WUI4 whole entry)": "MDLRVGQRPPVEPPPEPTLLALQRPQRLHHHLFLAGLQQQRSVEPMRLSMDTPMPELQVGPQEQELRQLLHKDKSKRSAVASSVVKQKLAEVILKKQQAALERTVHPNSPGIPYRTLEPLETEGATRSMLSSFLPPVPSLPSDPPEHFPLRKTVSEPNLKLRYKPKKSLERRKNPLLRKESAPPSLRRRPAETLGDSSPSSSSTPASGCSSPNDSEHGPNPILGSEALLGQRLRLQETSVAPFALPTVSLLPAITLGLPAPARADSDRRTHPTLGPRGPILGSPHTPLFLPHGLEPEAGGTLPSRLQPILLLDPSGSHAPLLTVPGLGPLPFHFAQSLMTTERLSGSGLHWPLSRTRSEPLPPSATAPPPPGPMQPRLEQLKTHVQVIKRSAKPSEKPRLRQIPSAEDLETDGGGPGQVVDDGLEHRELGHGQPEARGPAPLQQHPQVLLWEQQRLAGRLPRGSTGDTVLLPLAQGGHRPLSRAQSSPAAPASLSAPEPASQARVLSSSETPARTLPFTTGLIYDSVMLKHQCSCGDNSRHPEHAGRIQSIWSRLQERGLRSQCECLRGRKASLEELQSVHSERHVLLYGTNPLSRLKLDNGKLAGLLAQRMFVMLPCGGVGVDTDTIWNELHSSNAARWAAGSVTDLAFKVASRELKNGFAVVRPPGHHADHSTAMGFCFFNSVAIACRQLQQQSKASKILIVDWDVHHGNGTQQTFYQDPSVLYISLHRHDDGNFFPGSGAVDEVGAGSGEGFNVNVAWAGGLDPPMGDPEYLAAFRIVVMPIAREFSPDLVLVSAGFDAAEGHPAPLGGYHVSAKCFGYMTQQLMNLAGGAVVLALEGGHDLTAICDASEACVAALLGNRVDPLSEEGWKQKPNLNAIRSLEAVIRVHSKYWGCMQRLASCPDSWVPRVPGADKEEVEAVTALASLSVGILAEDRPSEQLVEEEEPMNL", "assay": "Inhibition of N-terminal GST-fusion tagged recombinant human HDAC7 (518 to 991 residues) expressed in insect cells using trifluoroacetyl lysine as substrate incubated for 2 hrs by Multimode microplate reader analysis"}, "Histone deacetylase 2": {"biological_target": "Histone deacetylase 2 (Homo sapiens, UniProt Q92769)", "sequence (Q92769 whole entry, the tested form may be a part)": "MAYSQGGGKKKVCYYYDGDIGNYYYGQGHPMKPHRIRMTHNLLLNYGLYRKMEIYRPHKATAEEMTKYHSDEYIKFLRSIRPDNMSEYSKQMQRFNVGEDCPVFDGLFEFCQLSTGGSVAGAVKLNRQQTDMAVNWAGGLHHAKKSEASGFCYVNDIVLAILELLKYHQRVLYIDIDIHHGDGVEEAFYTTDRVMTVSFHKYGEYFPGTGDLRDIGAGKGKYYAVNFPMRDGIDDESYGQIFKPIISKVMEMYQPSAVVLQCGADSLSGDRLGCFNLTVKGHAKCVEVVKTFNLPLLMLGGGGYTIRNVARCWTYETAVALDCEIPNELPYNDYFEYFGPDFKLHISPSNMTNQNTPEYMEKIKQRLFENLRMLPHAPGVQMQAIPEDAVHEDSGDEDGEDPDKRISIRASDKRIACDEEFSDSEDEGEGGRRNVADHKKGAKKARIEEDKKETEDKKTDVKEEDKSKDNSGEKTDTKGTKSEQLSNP", "assay": "Inhibition of full length recombinant human C-terminal GST-fusion-tagged human HDAC2 (1 to 488 residues) expressed in insect cells using RHK-K(Ac)-AMC as substrate incubated for 2 hrs by Multimode microplate reader analysis"}, "MV4-11 [3]": {"test_system": "MV4-11", "assay": "Induction of apoptosis in human MV4-11 cells assessed as late apoptotic cells at 0.2 uM measured after 48 hrs by Annexin V/7-AAD-dual staining based flow cytometric analysis (reference value: 1.1 %)", "assay_type": "functional"}, "MV4-11 [4]": {"test_system": "MV4-11", "assay": "animal or person", "assay_type": "functional, Homo sapiens", "conditions": "Mus musculus, MV4-11, 480 h, route ip, time 20 day, read-out: TGI"}, "MV4-11 [5]": {"test_system": "MV4-11", "assay": "Induction of apoptosis in human MV4-11 cells assessed as necrotic cells at 0.1 uM measured after 48 hrs by Annexin V/7-AAD-dual staining based flow cytometric analysis (reference value: 0.3 %)", "assay_type": "functional"}, "[6]": {"biological_target": "T2, Protein deacetylase HDAC6 (Homo sapiens, UniProt Q9UBN7)", "T2 sequence (Q9UBN7 whole entry)": "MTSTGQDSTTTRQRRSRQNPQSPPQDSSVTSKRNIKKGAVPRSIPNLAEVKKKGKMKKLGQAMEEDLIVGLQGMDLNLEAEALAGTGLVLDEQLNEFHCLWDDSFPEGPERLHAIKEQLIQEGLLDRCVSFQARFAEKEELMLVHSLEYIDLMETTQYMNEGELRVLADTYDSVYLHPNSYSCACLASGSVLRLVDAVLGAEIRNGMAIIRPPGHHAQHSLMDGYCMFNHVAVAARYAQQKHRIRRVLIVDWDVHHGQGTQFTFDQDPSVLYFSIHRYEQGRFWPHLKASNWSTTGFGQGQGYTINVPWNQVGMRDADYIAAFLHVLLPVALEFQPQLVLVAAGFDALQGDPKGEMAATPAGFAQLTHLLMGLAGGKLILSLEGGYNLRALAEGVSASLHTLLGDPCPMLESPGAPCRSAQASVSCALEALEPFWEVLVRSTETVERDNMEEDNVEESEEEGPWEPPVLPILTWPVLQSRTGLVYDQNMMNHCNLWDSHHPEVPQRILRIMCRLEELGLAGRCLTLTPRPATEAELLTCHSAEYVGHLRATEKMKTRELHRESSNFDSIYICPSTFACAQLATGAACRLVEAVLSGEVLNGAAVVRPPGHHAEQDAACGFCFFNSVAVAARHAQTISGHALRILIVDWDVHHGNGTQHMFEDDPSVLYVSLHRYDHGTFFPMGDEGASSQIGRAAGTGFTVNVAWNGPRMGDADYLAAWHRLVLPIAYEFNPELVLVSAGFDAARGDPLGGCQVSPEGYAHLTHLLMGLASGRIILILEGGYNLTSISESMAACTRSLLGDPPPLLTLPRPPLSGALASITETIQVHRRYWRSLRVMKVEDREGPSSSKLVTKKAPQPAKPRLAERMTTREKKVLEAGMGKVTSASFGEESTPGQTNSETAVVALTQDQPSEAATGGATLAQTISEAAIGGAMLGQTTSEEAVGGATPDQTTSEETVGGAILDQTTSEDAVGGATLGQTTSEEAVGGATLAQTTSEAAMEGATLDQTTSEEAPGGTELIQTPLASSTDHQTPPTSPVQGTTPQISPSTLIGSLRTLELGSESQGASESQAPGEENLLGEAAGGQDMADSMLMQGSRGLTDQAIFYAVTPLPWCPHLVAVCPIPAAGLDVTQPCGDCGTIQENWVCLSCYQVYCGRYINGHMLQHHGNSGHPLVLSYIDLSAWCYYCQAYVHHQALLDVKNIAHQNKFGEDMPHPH", "assay": "Inhibition of HDAC6 (unknown origin) preincubated for 5 mins followed by substrate addition and measured after 30 mins by multimode microplate reader analysis"}}, "data": [{"smiles": "Cc1cc(C)c(CNC(=O)c2cc(-c3ccc(N4CCN(c5ncc(C(=O)NO)cn5)CC4)nc3)cc3c2cnn3C(C)C)c(=O)[nH]1", "values": [{"measurement": "Activity", "setting": "MV4-11 [1]", "value": 23.3, "unit": "%"}, {"measurement": "IC50", "setting": "Histone deacetylase 9", "value": 7050, "unit": "nM"}, {"measurement": "Activity", "setting": "MV4-11 [2]", "value": 0.1, "unit": "%"}, {"measurement": "IC50", "setting": "Histone deacetylase 5", "value": 2860, "unit": "nM"}, {"measurement": "IC50", "setting": "Histone deacetylase 7", "value": 8190, "unit": "nM"}, {"measurement": "IC50", "setting": "Histone deacetylase 2", "value": 780, "unit": "nM"}, {"measurement": "Activity", "setting": "MV4-11 [3]", "value": 11.1, "unit": "%"}, {"measurement": "inhibition in vivo at 100 mg/kg", "setting": "MV4-11 [4]", "value": 82, "unit": "%"}, {"measurement": "Activity", "setting": "MV4-11 [5]", "value": 1.9, "unit": "%"}, {"measurement": "IC50", "setting": "[6]", "value": 700, "unit": "nM"}]}]}
